Assay results published in patent US10780090B2, “Heteroaryl compounds useful as inhibitors of SUMO activating enzyme” (Millennium Pharmaceuticals, Inc., priority 2014, dated 2020).
Read-outs that look alike come from different tables or passages of the source.

Biological target: recombinant human SAE enzyme (Homo sapiens (Human), UniProt Q9UBT2)
Experiment: SAE HTRF enzyme assay
Type: biochemical
Details: for inhibition at 0.111 µM: read-out: Percent Inhibition
Method in brief: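 HTRF read-out using Eu-cryptate anti-Flag and allophycocyanin anti-GST antibodies, added with EDTA stop buffer and read after 2 h at 24 °C. The preceding reaction ran 105 min at 24 °C: 0.11 nM recombinant SAE, 0.5 μM ATP, Sumo-Flag, Ubc9-GST, pH 7.5. Values given as single-concentration inhibition or IC50.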

[1] = SAE inhibition at compound concentration 0.111 μM
[2] = SAE inhibition, class symbols, legend in nM

Chain of recombinant human SAE enzyme (Q9UBT2 whole entry): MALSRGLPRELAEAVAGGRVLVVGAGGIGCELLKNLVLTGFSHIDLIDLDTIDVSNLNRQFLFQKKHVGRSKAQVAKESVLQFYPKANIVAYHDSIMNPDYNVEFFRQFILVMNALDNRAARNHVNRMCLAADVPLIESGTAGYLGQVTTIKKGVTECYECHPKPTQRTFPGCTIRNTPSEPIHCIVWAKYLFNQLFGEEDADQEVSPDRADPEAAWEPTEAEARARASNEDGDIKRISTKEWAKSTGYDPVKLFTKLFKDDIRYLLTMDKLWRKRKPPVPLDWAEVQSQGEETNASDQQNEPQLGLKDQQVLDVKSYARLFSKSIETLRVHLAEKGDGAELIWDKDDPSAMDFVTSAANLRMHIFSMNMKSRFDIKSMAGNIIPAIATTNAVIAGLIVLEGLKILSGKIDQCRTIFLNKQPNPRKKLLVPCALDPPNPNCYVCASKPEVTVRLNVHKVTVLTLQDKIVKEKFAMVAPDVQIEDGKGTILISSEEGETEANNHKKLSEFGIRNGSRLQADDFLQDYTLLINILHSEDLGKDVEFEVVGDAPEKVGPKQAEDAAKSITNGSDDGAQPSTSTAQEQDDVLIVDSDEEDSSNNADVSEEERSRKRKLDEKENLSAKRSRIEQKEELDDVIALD
Chain of recombinant human SAE enzyme (Q9UBE0 whole entry partner): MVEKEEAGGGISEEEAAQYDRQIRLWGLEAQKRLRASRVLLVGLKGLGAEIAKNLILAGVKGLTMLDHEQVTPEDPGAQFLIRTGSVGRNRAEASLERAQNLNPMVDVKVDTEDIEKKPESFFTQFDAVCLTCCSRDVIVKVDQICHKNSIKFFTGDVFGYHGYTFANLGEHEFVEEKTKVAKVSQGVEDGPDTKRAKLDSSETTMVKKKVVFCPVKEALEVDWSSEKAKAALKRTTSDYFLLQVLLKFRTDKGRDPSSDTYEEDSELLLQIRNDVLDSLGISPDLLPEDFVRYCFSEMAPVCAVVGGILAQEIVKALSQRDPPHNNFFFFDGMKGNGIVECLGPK

SMILES | inhibition at 0.111 µM (Concentration 0.111 μM) [%] | IC50 (class symbols A/B/C) [nM] | IC50 [2] [nM] | inhibition at 0.111 µM [1] [%] | also measured
CC(=O)c1coc(C(=O)c2cncnc2N[C@@H]2C[C@H](COS(N)(=O)=O)[C@@H](O)C2)c1 [I-234, [(1R,2S,4R)-4-{[5-(4-Acetyl-2-furoyl)pyrimidin-4-yl]amino}-2-hydroxycyclopentyl]methyl sulfamate] | 20 | 100 to 1000 | – | – | –
CC(C)(O)c1ccc(C(=O)c2cncnc2N[C@@H]2C[C@H](COS(N)(=O)=O)[C@@H](O)C2)s1 [I-235, {(1R,2S,4R)-2-hydroxy-4-[(5-{[5-(2-hydroxypropan-2-yl)-2-thienyl]carbonyl}pyrimidin-4-yl)amino]cyclopentyl}methyl sulfamate] | 22 | 100 to 1000 | – | – | –
NS(=O)(=O)OC[C@H]1C[C@@H](Nc2nc(Cl)ncc2C(=O)c2ccc(-c3ccccc3)o2)[C@H](O)[C@@H]1O [I-236, [(1R,2R,3S,4R)-4-{[2-chloro-5-(5-phenyl-2-furoyl)pyrimidin-4-yl]amino}-2,3-dihydroxycyclopentyl]methyl sulfamate] | 19 | 100 to 1000 | – | – | –
Cc1ccc(Cc2csc(C(=O)c3cncnc3N[C@@H]3C[C@H](COS(N)(=O)=O)[C@@H](O)C3)c2)o1 [I-237, [(1R,2S,4R)-2-Hydroxy-4-{[5-({4-[(5-methyl-2-furyl)methyl]-2-thienyl}carbonyl)pyrimidin-4-yl]amino}cyclopentyl]methyl sulfamate] | 25 | 100 to 1000 | – | – | –
NS(=O)(=O)OC[C@H]1C[C@@H](Nc2ncncc2C(=O)c2ccc(S(=O)(=O)c3ccccc3)o2)C[C@@H]1O [I-239, [(1R,2S,4R)-2-Hydroxy-4-(5-[5-(phenylsulfonyl)-2-furoyl]pyrimidin-4-yl}amino)cyclopentyl]methyl sulfamate] | – | 100 to 1000 | – | – | Percent Inhibition (Concentration 0.111 μM): 14
CC(C)(O)c1csc(C(=O)c2cncnc2N[C@@H]2C[C@H](COS(N)(=O)=O)[C@@H](O)C2)c1 [I-240, {(1R,2S,4R)-2-Hydroxy-4-[(5-{[4-(2-hydroxypropan-2-yl)-2-thienyl]carbonyl}pyrimidin-4-yl)amino]cyclopentyl}methyl sulfamate] | 19 | 100 to 1000 | – | – | –
NS(=O)(=O)OC[C@H]1C[C@@H](Nc2ncncc2C(=O)c2cc(CN3CCN(c4ccccc4)CC3)cs2)C[C@@H]1O [I-241, [(1R,2S,4R)-2-hydroxy-4-{[5-({4-[(4-phenylpiperazin-1-yl)methyl]-2-thienyl}carbonyl)pyrimidin-4-yl]amino}cyclopentyl]methyl sulfamate] | 18 | 100 to 1000 | – | – | –
CC(=O)c1cc(C(=O)c2cncnc2N[C@@H]2C[C@H](COS(N)(=O)=O)[C@@H](O)C2)sc1Cl [I-242, [(1R,2S,4R)-4-{(5-[(4-Acetyl-5-chloro-2-thienyl)carbonyl]pyrimidin-4-yl}amino)-2-hydroxycyclopentyl]methyl sulfamate] | 25 | 100 to 1000 | – | – | –
NS(=O)(=O)OC[C@H]1C[C@@H](Nc2ncncc2C(=O)c2cc(Cn3cnc(Br)c3)cs2)C[C@@H]1O [I-243, [(1R,2S,4R)-4-{[5-({4-[(4-bromo-1H-imidazol-1-yl)methyl]-2-thienyl}carbonyl)pyrimidin-4-yl]amino}-2-hydroxycyclopentyl]methyl sulfamate] | 19 | 100 to 1000 | – | – | –
Cc1sc(C(=O)c2cncnc2N[C@@H]2C[C@H](COS(N)(=O)=O)[C@@H](O)C2)cc1[C@H]1OCCc2ccccc21 [I-256a, [(1R,2S,4R)-4-{[5-({4-[(1S)-3,4-dihydro-1H-isochromen-1-yl]-5-methyl-2-thienyl}carbonyl)pyrimidin-4-yl]amino}-2-hydroxycyclopentyl]methyl sulfamate] | 94 | < 10 | – | – | –
Cc1sc(C(=O)c2cncnc2N[C@@H]2C[C@H](COS(N)(=O)=O)[C@@H](O)C2)cc1[C@@H]1OCCc2ccccc21 [I-256b, [(1R,2S,4R)-4-{[5-({4-[(1R)-3,4-Dihydro-1H-isochromen-1-yl]-5-methyl-2-thienyl}carbonyl)pyrimidin-4-yl]amino}-2-hydroxycyclopentyl]methyl sulfamate] | 99 | < 10 | – | – | –
Cc1sc(C(=O)c2cncnc2N[C@@H]2C[C@H](COS(N)(=O)=O)[C@@H](O)C2)cc1[C@H]1OCCc2ccc(Cl)cc21 [I-257a, [(1R,2S,4R)-4-{[5-({4-[(1S)-7-chloro-3,4-dihydro-1H-isochromen-1-yl]-5-methyl-2-thienyl}carbonyl)pyrimidin-4-yl]amino}-2-hydroxycyclopentyl]methyl sulfamate] | 74 | 10 to 100 | – | – | –
Cc1sc(C(=O)c2cncnc2N[C@@H]2C[C@H](COS(N)(=O)=O)[C@@H](O)C2)cc1[C@@H]1OCCc2ccc(Cl)cc21 [I-257b, [(1R,2S,4R)-4-{[5-({4-[(1R)-7-Chloro-3,4-dihydro-1H-isochromen-1-yl]-5-methyl-2-thienyl}carbonyl)pyrimidin-4-yl]amino}-2-hydroxycyclopentyl]methyl sulfamate] | 99 | < 10 | – | – | –
Cc1sc(C(=O)c2cncnc2N[C@@H]2C[C@H](COS(N)(=O)=O)[C@@H](O)C2)cc1[C@@H]1NCCc2ccc(Cl)cc21 [I-263a, [(1R,2S,4R)-4-[[5-[4-[(1R)-7-chloro-1,2,3,4-tetrahydroisoquinolin-1-yl]-5-methyl-thiophene-2-carbonyl]pyrimidin-4-yl]amino]-2-hydroxy-cyclopentyl]methyl sulfamate] | 101 | < 10 | – | – | –
Cc1sc(C(=O)c2cncnc2N[C@@H]2C[C@H](COS(N)(=O)=O)[C@@H](O)C2)cc1[C@H]1NCCc2ccc(Cl)cc21 [I-263b, [(1R,2S,4R)-4-{[5-({4-[(1S)-7-chloro-1,2,3,4-tetrahydroisoquinolin-1-yl]-5-methyl-2-thienyl}carbonyl)pyrimidin-4-yl]amino}-2-hydroxycyclopentyl]methyl sulfamate] | 89 | 10 to 100 | – | – | –
Cc1sc(C(=O)c2cncnc2N[C@@H]2C[C@H](COS(N)(=O)=O)[C@@H](O)C2)cc1[C@@H]1c2cc(Cl)ccc2CCN1C [I-306, [(1R,2S,4R)-4-[[5-[4-[(1R)-7-Chloro-2-methyl-3,4-dihydro-1H-isoquinolin-1-yl]-5-methyl-thiophene-2-carbonyl]pyrimidin-4-yl]amino]-2-hydroxy-cyclopentyl]methyl sulfamate and 2-carbonyl]pyrimidin-4-yl]amino]-2-hydroxy-cyclopentyl]methyl sulfamate] | – | – | < 10 | – | Percent Inhibition [1]: 98%
Cc1sc(C(=O)c2cncnc2N[C@@H]2C[C@H](COS(N)(=O)=O)[C@@H](OC(=O)CN)C2)cc1[C@@H]1OCCc2ccc(Cl)cc21 [I-330, (1S,2R,4R)-4-{[5-({4-[(1R)-7-chloro-3,4-dihydro-1H-isochromen-1-yl]-5-methyl-2-thienyl}carbonyl)pyrimidin-4-yl]amino}-2-[(sulfamoyloxy)methyl]cyclopentyl aminoacetate] | – | – | 100 to 1000 | 34 | –
Cc1sc(C(=O)c2cncnc2N[C@@H]2C[C@H](COS(N)(=O)=O)[C@@H](OC(=O)[C@@H](N)C(C)C)C2)cc1[C@@H]1OCCc2ccc(Cl)cc21 [I-338, (1S,2R,4R)-4-{[5-({4-[(1R)-7-Chloro-3,4-dihydro-1H-isochromen-1-yl]-5-methyl-2-thienyl}carbonyl)pyrimidin-4-yl]amino}-2-[(sulfamoyloxy)methyl]cyclopentyl (2S)-2-amino-3-methylbutanoate] | – | – | 10 to 100 | 56 | –
Cc1sc(C(=O)c2cncnc2N[C@@H]2C[C@H](COS(N)(=O)=O)[C@@H](OC(=O)c3cccc(COP(=O)(O)O)c3)C2)cc1[C@@H]1OCCc2ccc(Cl)cc21 [I-345, (1S,2R,4R)-4-{[5-({4-[(1R)-7-chloro-3,4-dihydro-1H-isochromen-1-yl]-5-methyl-2-thienyl}carbonyl)pyrimidin-4-yl]amino}-2-[(sulfamoyloxy)methyl]cyclopentyl 3-[(phosphonooxy)methyl]benzoate] | – | – | 100 to 1000 | 5 | –
NS(=O)(=O)OC[C@H]1C[C@@H](Nc2ncncc2C(=O)c2ncc(Cc3ccccc3)s2)[C@H](O)[C@@H]1O [I-350, [(1R,2R,3S,4R)-4-({5-[(5-benzyl-1,3-thiazol-2-yl)carbonyl]pyrimidin-4-yl}amino)-2,3-dihydroxycyclopentyl]methyl sulfamate] | – | – | 10 to 100 | 75 | –
Cc1cccc(Cc2csc(C(=O)c3cncnc3N[C@@H]3C[C@H](COS(N)(=O)=O)[C@@H](O)C3)n2)c1 [I-351, {(1R,2S,4R)-2-hydroxy-4-[(5-{[4-(3-methylbenzyl)-1,3-thiazol-2-yl]carbonyl}pyrimidin-4-yl)amino]cyclopentyl}methyl sulfamate] | – | – | – | 93 | –
Cc1sc(C(=O)c2cncnc2N[C@@H]2C[C@H](COS(N)(=O)=O)[C@@H](O)[C@H]2O)nc1Cc1cccc(Cl)c1 [I-352, {(1R,2R,3S,4R)-4-[(5-{[4-(3-chlorobenzyl)-5-methyl-1,3-thiazol-2-yl]carbonyl}pyrimidin-4-yl)amino]-2,3-dihydroxycyclopentyl}methyl sulfamate] | – | – | < 10 | 100 | –
Cc1sc(C(=O)c2cncnc2N[C@@H]2C[C@H](COS(N)(=O)=O)[C@@H](O)C2)nc1Cc1cccc(Cl)c1 [I-353, {(1R,2S,4R)-4-[(5-{[4-(3-chlorobenzyl)-5-methyl-1,3-thiazol-2-yl]carbonyl}pyrimidin-4-yl)amino]-2-hydroxycyclopentyl}methyl sulfamate] | – | – | < 10 | 98 | –
Cc1sc(C(=O)c2cncnc2N[C@@H]2C[C@H](COS(N)(=O)=O)[C@@H](O)[C@H]2O)nc1Cc1cccc(Br)c1 [I-354, {(1R,2R,3S,4R)-4-[(5-{[4-(3-bromobenzyl)-5-methyl-1,3-thiazol-2-yl]carbonyl}pyrimidin-4-yl)amino]-2,3-dihydroxycyclopentyl}methyl sulfamate] | – | – | < 10 | 100 | –
